How the values were obtained:
[1] = Incubation with GSH at pH 7.4; format: physicochemical; settings: pH 7.4, within 4 h of incubation
[2] = cited from earlier work

Row | corresponding GSH adduct produced [1] | Compound | pKa [2]
1 | more than 50% | COc1ccc2c(c1)CCCN2C(=O)CCl [Compound 11] | –
2 | – | N[C@@H](CCC(=O)N[C@@H](CS)C(=O)NCC(=O)O)C(=O)O [GSH, glutathione] | 9.17
